Assay results published in patent US7511029B2, “Pesticidal diazene oxide carboxylates” (Chemtura Corporation, priority 2007, dated 2009).

How the values were obtained:
[1] = test system: Tetranychus urticae Koch; assay: Mite adulticide (MI) test; assay type: in vivo; conditions: adult mites on cowpea leaves sprayed to run off with 1000 ppm solution; mites transferred one day after treatment, examined five days later
Method: (§1) The remaining examples relate to the pesticidal use of compounds of this invention. In all these examples a stock solution for the compounds was prepared at 3000 ppm by dissolving 0.3 grams of the compound to be tested in 10 mL of acetone and adding 90 mL of distilled water plus four drops of ethoxylated sorbitan monolaurate, or a similar suitable wetting agent. For each example that follows, this stock solution was used and the specified dilutions made. All the tests discussed below, which involved treatment with compounds of this invention, were always repeated with controls, in which the active compound was not provided, to permit a comparison upon which the percent control was calculated. One day before treatment, a “figure 8” configuration of tree tanglefoot was applied to each of two cowpea primary leaves, one from each of two plants in a pot. In each Figure, the circle nearer the stem was designated for the mite ovicide/larvicide test and the circle further from the stem was designated for the mite adulticide test. Groups of adult mites (Tetranychus urticae Koch) were transferred into ovicide circles one day before treatment and the females were allowed to deposit eggs until one hour before treatment when they were removed. Plants were sprayed to run off with a 1000 ppm solution diluted from the 3000 ppm stock solution. […]

[2] = test system: Tetranychus urticae Koch; assay: Mite ovicide/larvicide (MIOVL) test; assay type: in vivo; conditions: eggs/immature mites on cowpea leaves sprayed with 1000 ppm solution; examined nine days following treatment; effect larvicidal (L)
Method: as §1

SMILES: COc1ccc(-c2ccccc2)cc1[N+]([O-])=NC(=O)OC(C)C [Compound 1, 1-Methylethyl 2-(4-methoxy-[1,1′-biphenyl]-3-yl)diazenecarboxylate 2-oxide]
- MI percent control [1]: 100 % Control
- MIOVL (L) percent control [2]: 100 % Control
- melting point: 102 to 106 °C
